Results as given in ChEMBL document CHEMBL1201862, “PubChem BioAssay data set” (2004).
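Assay format: 96-well plates, 48-hour exposure. Here, GI50 denotes the concentration required for 50% inhibition of growth.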 Active and inactive are the calls of the source. Rule as the data show it: active = GI50 up to about 1.1 µM and inactive = higher.

Tests used:
Test in all cases: NCI tumour cell line growth inhibition, 48 h
[1] = test system: HL-60
[2] = test system: IGROV-1
[3] = test system: K562
[4] = test system: MDA-MB-435
[5] = test system: MOLT-4
[6] = test system: NCI-H226
[7] = test system: NCI-H522
[8] = test system: OVCAR-3
[9] = test system: OVCAR-5
[10] = test system: PC-3
[11] = test system: RPMI-8226
[12] = test system: SF-295
[13] = test system: SF-539
[14] = test system: SK-MEL-2
[15] = test system: SK-MEL-5
[16] = test system: SK-OV-3
[17] = test system: SR
[18] = test system: SW-620
[19] = test system: U-251
[20] = test system: UO-31

Compound	GI50 [1]	GI50 [2]	GI50 [3]	GI50 [4]	GI50 [5]	GI50 [6]	GI50 [7]	GI50 [8]	GI50 [9]	GI50 [10]	GI50 [11]	GI50 [12]	GI50 [13]	GI50 [14]	GI50 [15]	GI50 [16]	GI50 [17]	GI50 [18]	GI50 [19]	GI50 [20]
COc1ccc2c(c1)-c1nn(CCN(C)C)c3ccc(C(=O)NCCCN(C)CCCNC(=O)c4ccc5c6c(c7cc(OC)ccc7nc46)NN5CCN(C)C)c(c13)N2	0.204 µM (active)	0.0215 µM (active)	0.0128 µM (active)	0.0401 µM (active)	< 0.01 µM (active)	0.155 µM (active)	< 0.01 µM (active)	0.0933 µM (active)	0.126 µM (active)	0.0208 µM (active)	0.0105 µM (active)	0.0671 µM (active)	< 0.01 µM (active)	0.0184 µM (active)	0.0512 µM (active)	0.0861 µM (active)	0.127 µM (active)	0.018 µM (active)	< 0.01 µM (active)	0.183 µM (active)
COc1cc2c(cc1OCCCN1CCN(C)CC1)N=C[C@@H]1CCCN1C2=O	1.41 µM (inactive)	–	0.679 µM (active)	1.9 µM (inactive)	0.32 µM (active)	1.93 µM (inactive)	0.179 µM (active)	2.06 µM (inactive)	2.27 µM (inactive)	2.67 µM (inactive)	1.04 µM (active)	2 µM (inactive)	2.19 µM (inactive)	2.42 µM (inactive)	2.04 µM (inactive)	2.84 µM (inactive)	0.0887 µM (active)	1.41 µM (inactive)	0.935 µM (active)	2.14 µM (inactive)
CCC(=O)N(c1ccccc1)C(C)CN1CCC(O)(c2ccccc2)CC1 (configuration not stated)	> 100 µM (inactive)	> 100 µM (inactive)	74.1 µM (inactive)	> 100 µM (inactive)	> 100 µM (inactive)	> 100 µM (inactive)	> 100 µM (inactive)	> 100 µM (inactive)	> 100 µM (inactive)	> 100 µM (inactive)	> 100 µM (inactive)	> 100 µM (inactive)	> 100 µM (inactive)	> 100 µM (inactive)	> 100 µM (inactive)	> 100 µM (inactive)	> 100 µM (inactive)	–	> 100 µM (inactive)	> 100 µM (inactive)
CC(CCC(=O)O)[C@H]1CCC2[C@H]3C(CC(=O)[C@@]21C)[C@@]1(C)CCC(O)C[C@H]1C[C@@H]3O (some centres not stated)	> 100 µM (inactive)	> 100 µM (inactive)	> 100 µM (inactive)	> 100 µM (inactive)	> 100 µM (inactive)	> 100 µM (inactive)	> 100 µM (inactive)	–	> 100 µM (inactive)	> 100 µM (inactive)	> 100 µM (inactive)	–	> 100 µM (inactive)	> 100 µM (inactive)	–	–	> 100 µM (inactive)	> 100 µM (inactive)	> 100 µM (inactive)	> 100 µM (inactive)
CN(C)c1nc(N)c(C#N)c(C#N)c1C#N	2.21 µM (inactive)	> 6 µM (inactive)	> 4.61 µM (inactive)	> 10 µM (inactive)	3.28 µM (inactive)	> 10 µM (inactive)	1.87 µM (inactive)	> 10 µM (inactive)	> 10 µM (inactive)	> 10 µM (inactive)	> 8.79 µM (inactive)	> 10 µM (inactive)	> 10 µM (inactive)	> 10 µM (inactive)	> 10 µM (inactive)	> 10 µM (inactive)	3.42 µM (inactive)	8.73 µM (inactive)	> 10 µM (inactive)	> 10 µM (inactive)
O=c1[nH]nc(N/N=C\c2ccc(Cl)cc2)c2ccccc12	> 100 µM (inactive)	15.4 µM (inactive)	20.9 µM (inactive)	17.8 µM (inactive)	60.3 µM (inactive)	27.6 µM (inactive)	16.6 µM (inactive)	16 µM (inactive)	16.9 µM (inactive)	17.2 µM (inactive)	25.7 µM (inactive)	18.5 µM (inactive)	21.4 µM (inactive)	17.2 µM (inactive)	16.1 µM (inactive)	18.5 µM (inactive)	3.9 µM (inactive)	17.5 µM (inactive)	20.5 µM (inactive)	18.6 µM (inactive)
O=[N+]([O-])c1ccc(-n2nc3ccc4c(no[n+]4[O-])c3[n+]2[O-])c([N+](=O)[O-])c1	1.95 µM (inactive)	1.71 µM (inactive)	2.14 µM (inactive)	2.71 µM (inactive)	1.95 µM (inactive)	8.24 µM (inactive)	1.72 µM (inactive)	2.47 µM (inactive)	6.41 µM (inactive)	8 µM (inactive)	2.29 µM (inactive)	4.53 µM (inactive)	6.15 µM (inactive)	3.56 µM (inactive)	2.79 µM (inactive)	9.51 µM (inactive)	1.91 µM (inactive)	2.1 µM (inactive)	2.77 µM (inactive)	5.27 µM (inactive)
[O-][N+]1=[N+]([O-])[C@@H](c2ccccc2)[C@H]1c1ccccc1	2.05 µM (inactive)	12.6 µM (inactive)	3.52 µM (inactive)	18.7 µM (inactive)	21.3 µM (inactive)	21.3 µM (inactive)	11.5 µM (inactive)	15.2 µM (inactive)	19.9 µM (inactive)	17.5 µM (inactive)	4.48 µM (inactive)	19.9 µM (inactive)	18.4 µM (inactive)	17.9 µM (inactive)	16.7 µM (inactive)	32.3 µM (inactive)	18.4 µM (inactive)	14.5 µM (inactive)	18.6 µM (inactive)	14.8 µM (inactive)
CCCN(CCC)CCc1ccc(OC2=CCN(C)CC2)cc1	35.8 µM (inactive)	67.3 µM (inactive)	42.6 µM (inactive)	33 µM (inactive)	43.3 µM (inactive)	> 100 µM (inactive)	21.1 µM (inactive)	79.3 µM (inactive)	> 100 µM (inactive)	> 100 µM (inactive)	> 100 µM (inactive)	> 100 µM (inactive)	–	> 100 µM (inactive)	32.3 µM (inactive)	> 100 µM (inactive)	28.2 µM (inactive)	> 100 µM (inactive)	> 100 µM (inactive)	23.6 µM (inactive)
C=CCC1(O)c2cccc(O)c2C(=O)c2cccc(O)c21 (configuration not stated)	11.7 µM (inactive)	23.6 µM (inactive)	6.71 µM (inactive)	9.38 µM (inactive)	11.3 µM (inactive)	22.3 µM (inactive)	9.86 µM (inactive)	12.3 µM (inactive)	22.5 µM (inactive)	16.9 µM (inactive)	11.5 µM (inactive)	9.35 µM (inactive)	31.8 µM (inactive)	12 µM (inactive)	10.7 µM (inactive)	–	6.41 µM (inactive)	25.2 µM (inactive)	11.9 µM (inactive)	15.4 µM (inactive)
C=CCOC(=O)N1c2ccc(O)cc2[C@@]23O[C@@]24[C@@H]1C#C/C=C\C#C[C@]3(O)C(=O)C[C@@H]4C	37.8 µM (inactive)	62.8 µM (inactive)	59.7 µM (inactive)	27.4 µM (inactive)	14.8 µM (inactive)	34.4 µM (inactive)	40.1 µM (inactive)	–	28.2 µM (inactive)	34.8 µM (inactive)	25.6 µM (inactive)	> 100 µM (inactive)	83.8 µM (inactive)	77.8 µM (inactive)	21.5 µM (inactive)	–	15 µM (inactive)	> 100 µM (inactive)	95.9 µM (inactive)	54.3 µM (inactive)
C/C1=C\CC[C@@]2(C)O[C@@H]2C[C@@H]2[C@H](C/C(C)=C/CC1)OC(=O)[C@]21CO1	> 100 µM (inactive)	42.2 µM (inactive)	34.4 µM (inactive)	65.8 µM (inactive)	22 µM (inactive)	> 100 µM (inactive)	32.5 µM (inactive)	> 100 µM (inactive)	> 100 µM (inactive)	> 100 µM (inactive)	51.5 µM (inactive)	> 100 µM (inactive)	–	> 100 µM (inactive)	> 100 µM (inactive)	> 100 µM (inactive)	36.7 µM (inactive)	68.7 µM (inactive)	63.8 µM (inactive)	> 100 µM (inactive)
Cc1cc(O)c2c(=O)c3ccccc3[nH]c2c1	28.3 µM (inactive)	13.3 µM (inactive)	9.77 µM (inactive)	27.4 µM (inactive)	36.3 µM (inactive)	23.1 µM (inactive)	3.56 µM (inactive)	29 µM (inactive)	18.9 µM (inactive)	19.3 µM (inactive)	11.8 µM (inactive)	20 µM (inactive)	15.7 µM (inactive)	81.7 µM (inactive)	14.7 µM (inactive)	52.8 µM (inactive)	16 µM (inactive)	41.6 µM (inactive)	40.8 µM (inactive)	–
CC(C(O)c1ccccc1)[N+](=O)[O-] (configuration not stated)	4.79 µM (inactive)	14.8 µM (inactive)	6.44 µM (inactive)	18.5 µM (inactive)	1.65 µM (inactive)	24.4 µM (inactive)	8.71 µM (inactive)	4.91 µM (inactive)	24.1 µM (inactive)	22.6 µM (inactive)	2.9 µM (inactive)	28.5 µM (inactive)	20.3 µM (inactive)	19.5 µM (inactive)	17.9 µM (inactive)	–	2.68 µM (inactive)	8.81 µM (inactive)	16.6 µM (inactive)	7.69 µM (inactive)
